Results: patent US10172957B2, “Acid-labile lipophilic prodrugs of cancer chemotherapeutic agents” (priority 2011, dated 2019)

Key:
[1] = Stability in rat plasma at 37° C.; type: in vitro ADME
Protocol: The stability of the acid labile, lipophilic molecular conjugates to hydrolysis in plasma was evaluated to determine their potential to release the active cancer chemotherapeutic agents into systemic circulation and thereby cause general off target toxicity (“side effects”). The conjugates were incubated with plasma of mouse, rat and human origin.
HPLC grade Methanol from Fisher (Fair lawn, NJ, USA). Part No: A452-4 (074833). HPLC grade Water from Fisher (Fair lawn, NJ, USA). Part No: W5-4 (073352). Drug-free mouse, rat and human plasmas were purchased from Innovative Research Inc. (Southfield, Mich., USA). LIPOSYN® I.V. (30% soybean oil and egg yolk phospholipids, Abbott Laboratories) Fat Emulsion from Hospira, Inc. (Lake Forest, Ill.).
Each drug (ART 198, ART 273, ART 488 and ART 489) was prepared in triplicate in mouse, rat and human plasma individually at […] concentration and vortexed for 1 minute and placed in a water bath at 37° C. at a shake rate of 75 per minute. Samples were drawn at time points of 0, 15, 30, 45, 60, 75, 90, 105, 120, 135, 150, 165, 180, 210, 240, 300, 360 and 480 minutes.
Chromatographic separation of the compounds was performed on a Waters Acquity UPLC™ using a BEH C18 column (1.7 μm, 2.1×50 mm). The mobile phase consisted of Methanol: 0.1% Formic acid (80:20). The flow rate was 0.3 ml/min; the sample injection volume was 5 μL, resulting in a 3 minute run time.
The MS instrumentation consisted of a Waters Micromass Quattro Micro™ triple-quadrupole system (Manchester, UK). The MS system was controlled by a 4.0 version of MassLynx software. Ionization was performed in the positive electrospray ionization mode. MS/MS conditions were the following: capillary voltage 3.02 kV; cone voltage 50 v; extractor voltage 5 v; and RF lens voltage 0.5 v. The source and desolvation temperatures were 100° C. and 400° C. respectively, and the desolvation and cone gas flow were 400 and 30 L/hr, respectively.
The selected mass-to-charge (m/z) ratio transitions of the ART 198 used in the selected ion monitoring (SIM) were: for ART 198, 617 (M+K)^+, for ART 273, 589 (M+K)^+, for ART 488, 913 (M+Na)^+, and for ART 489, 957 (M+Na)^+. The dwell time was set at 200 msec. MS conditions were optimized using direct infusion of standard solutions prepared in methanol and delivered by a syringe pump at a flow rate of 20 μL/min.
Samples of 100 μL were collected at time points of 0, 15, 30, 45, 60, 75, 90, 105, 120, 135, 150, 165, 180, 210, 240, 300, 360 and 480 minutes respectively and the reaction was terminated with methanol. In a separate set of experiments the acid labile, lipophilic molecular conjugates were dissolved in a small amount of ethanol and diluted into a lipid emulsion (Liposyn®) and added to mouse and human plasma before incubation and the hydrolysis of the conjugates was similarly measured. Collected plasma samples of 100 μL containing drug were placed in separate Eppendorf micro centrifuge tubes for processing. Methanol (200 μL) was added to extract the drug using the protein precipitation technique. The micro tubes were then vortex mixed for 10 minutes and centrifuged for 15 minutes at a speed of 10,000 rpm (Eppendorf 5415C centrifuge). The supernatant was collected and filtered using a 0.45 μm filter (Waters 13 mm GHP 0.45 μm) before analysis.
The weighted linear least-squares (1/x) regression was used as the mathematical model. The coefficient (r) for the compounds ranged from 0.9925 to 0.9999. The calibration range was selected according to the concentrations anticipated in the samples to be determined.
Samples were collected at various times and the percent remaining of the acid labile, lipophilic molecular conjugate of the cancer chemotherapeutic agent was determined along with the percent of the chemotherapeutic agent released from the hydrolysis of the conjugate.

[2] = system: CEM/VLB100 cells (MDR+); experiment: cells; type: cell-based, human; conditions: for IC50: Homo sapiens, CEM/VLB100, read-out: IC50 CEM/VLB100 (MDR + HTL), CEM/VLB100, MTT; for Degree of resistance (CEM/VLB100): IC50 of the resistant line divided by IC50 of sensitive CEM cells
Excerpt: (§1) A second evaluation of the cytotoxicity of the acid labile, lipophilic molecular conjugates was undertaken.
(§2) These lines included a uterine sarcoma line, MES-SA, and its doxorubicin-resistant subline, MES-SA/Dx5. See W. G. Harker, F. R MacKintosh, and B. I. Sikic. Development and characterization of a human sarcoma cell line, MES-SA, sensitive to multiple drugs. Cancer Research 43: 4943-4950 (1983); W. G. Harker and B. I. Sikic. Multidrug (pleiotropic) resistance in doxorubicin-selected variants of the human sarcoma cell line MES-SA. Cancer Research 45: 4091 4096 (1985).
(§3) The second set of cells tested, CCRF-CEM or simply CEM, were derived from the blood of a patient with acute lymphoblastic leukemia. G. E. Foley, H. Lazarus, S. Farber, B. G. Uzman, B. A. Boone, and R E. McCarthy. Continuous culture of human lymphoblasts from peripheral blood of a child with acute leukemia. Cancer 18: 522-529 (1965). The subline CEM/VLB100 was developed to be resistant to up to vinblastine at 100 ng/ml. W. T. Beck, T. J. Mueller, and L. R. Tanzer. Altered surface membrane glycoproteins in Vinca alkaloid-resistant human leukemic lymphoblasts. Cancer Research 39: 2070-2076 (1979). Drug resistance is achieved by overexpression of the MDR1 gene. Resistance in the CEM subline designated CEM/VM-1-5, however, is “atypical.” M. K. Danks, J. C. Yalowich, and W. T. Beck. Atypical multiple drug resistance in a human leukemic cell line selected for resistance to teniposide (VM-26). Cancer Research 47: 1297-1301 (1987). The classes of drugs included in the “classic” multiple drug resistance phenotype are Vinca alkaloids, anthracyclines, epipodophyllotoxins and antibiotics. However, CEM/VM-1-5 cells retain sensitivity to the Vinca alkaloids despite resistance and cross-resistance to etoposide, anthracyclines and mitoxantrone. Danks, M. K.; Schmidt, C. A.; Cirtain, M. C.; Suttle, D. P.; Beck, W. T., Altered catalytic activity of and DNA cleavage by DNA topoisomerase II from human leukemic cells selected for resistance to VM-26. Biochemistry 1988, 27, 8861-8869. Resistance in CEM/VM-1-5 cells is effected by over expression of the […]. CEM, CEM/VLB100 and CEM/VM-1-5 cells were obtained from Dr. WT Beck, University of Illinois at Chicago.

[3] = system: CCRF-CEM (CEM) cells; experiment: MTT-based cytotoxicity assay, CEM; type: cell-based, human; conditions: Homo sapiens, CCRF-CEM, read-out: IC50 CEM (HTL), CEM human T-lymphoblastoid, MTT
Excerpt: as §1, §2, §3

CCCCCCCCCCCCCCCC1OCC(COC(=O)OC2=C(C)[C@@H]3C[C@H]4OC(=O)C(OC(=O)CC5(O)CCCCC5)[C@H]5[C@]6(C(=O)OC)OC[C@]45[C@H]([C@@H](O)[C@@H]6O)[C@@]3(C)CC2=O)O1 (stereo partly shown) [ART 489]
percent remaining of initial drug ([1]; 0 min): 100% | percent remaining of initial drug ([1]; 15 min): 93.2% | percent remaining of initial drug ([1]; 30 min): 75.8% | percent remaining of initial drug ([1]; 45 min): 74.3% | percent remaining of initial drug ([1]; 60 min): 75.0% | percent remaining of initial drug ([1]; 75 min): 74.4% | percent remaining of initial drug ([1]; 90 min): 74.4% | percent remaining of initial drug ([1]; 105 min): 73.7% | percent remaining of initial drug ([1]; 120 min): 69.9% | percent remaining of initial drug ([1]; 135 min): 68.5% | percent remaining of initial drug ([1]; 150 min): 67.3% | percent remaining of initial drug ([1]; 165 min): 63.0% | percent remaining of initial drug ([1]; 180 min): 63.0% | percent remaining of initial drug ([1]; 210 min): 62.7% | percent remaining of initial drug ([1]; 240 min): 61.7% | percent remaining of initial drug ([1]; 300 min): 55.4% | percent remaining of initial drug ([1]; 360 min): 48.2% | percent remaining of initial drug ([1]; 480 min): 34.3% | IC50 [2]: 670 ± 71 nM | Degree of resistance (CEM/VLB100) [2]: 33 ± 0 | IC50 [3]: 21 ± 2 nM

CCCCCCCCCCCCCCCC1OCC(COC(=O)O[C@@H]2C(=O)C=C(C)[C@@H]3C[C@H]4OC(=O)C(OC(=O)CC(O)(C(C)C)C(C)C)C5[C@@H](C)[C@@H](O)[C@@]6(O)OC[C@@]54C6[C@@]23C)O1 (stereo partly shown) [ART 488]
percent remaining of initial drug ([1]; 480 min): 33.3% | IC50 [2]: 34 ± 12 nM | Degree of resistance (CEM/VLB100) [2]: 9 ± 4 | IC50 [3]: 4 nM

COC(=O)[C@@]12OC[C@]34[C@H]([C@@H](O)[C@@H]1O)[C@@]1(C)CC(=O)C(O)=C(C)[C@@H]1C[C@H]3OC(=O)C(OC(=O)CC1(O)CCCCC1)[C@@H]24 (stereo partly shown) [ART 198]
percent remaining of initial drug ([1]; 0 min): 100% | percent remaining of initial drug ([1]; 15 min): 95.8% | percent remaining of initial drug ([1]; 30 min): 84.0% | percent remaining of initial drug ([1]; 45 min): 66.0% | percent remaining of initial drug ([1]; 60 min): 55.7% | percent remaining of initial drug ([1]; 75 min): 54.4% | percent remaining of initial drug ([1]; 90 min): 54.2% | percent remaining of initial drug ([1]; 105 min): 54.0% | percent remaining of initial drug ([1]; 120 min): 52.1% | percent remaining of initial drug ([1]; 135 min): 48.9% | percent remaining of initial drug ([1]; 150 min): 48.9% | percent remaining of initial drug ([1]; 165 min): 45.4% | percent remaining of initial drug ([1]; 180 min): 44.0% | percent remaining of initial drug ([1]; 210 min): 42.7% | percent remaining of initial drug ([1]; 240 min): 42.2% | percent remaining of initial drug ([1]; 300 min): 34.3% | percent remaining of initial drug ([1]; 360 min): 30.1% | percent remaining of initial drug ([1]; 480 min): 30.1% | IC50 [2]: 7190 ± 1920 nM | Degree of resistance (CEM/VLB100) [2]: 76 ± 52 | IC50 [3]: 113 ± 53 nM
